Measured values as given in patent US12378247B2, “Mesylate salt of para-topolin, compositions containing said salt and use thereof” (USTAV EXPERIMENTALNI BOTANIKY AV CR, V. V. I., priority 2020, dated 2025).
In brackets after ≈: the same amount, converted by molar mass. Structures can show the parent of a compound that is named as a salt. Where two headings read alike, the source gives them in different places.

Tests used:
[1] = Solubility in various organic solvents; format: physicochemical
Description: Solubility in various organic solvents was measured using the following protocol. Approximately 10 mg portions of para-topolin and crystalline para-topolin mesylate salt were placed in different vials, separately. Five volume aliquots of each solvent were added exclusively to a vial. Between each addition, the mixture was checked for dissolution and if no dissolution was apparent, the procedure was continued until dissolution was observed or further volumes had been added.

Disproportionation study = format: physicochemical; conditions: 50 mg in 1 ml distilled water, ca. 48 hours, recrystallized
Description: A 50 mg sample of crystalline para-topolin mesylate salt was dissolved in 1 ml of distilled water, kept in solution for ca. 48 hours and then crystallized and checked by XRPD for disproportionation.

[2] = ORAC (Oxygen Radical Absorbance Capacity), ability to scavenge free radicals; format: biochemical; conditions: n = 3
Description: The ability of the substance to scavenge free radicals in vitro was determined using the ORAC (Oxygen Radical Absorbance Capacity) method. Briefly, 100 μl of fluorescein ([…]) and 25 μl of tested substance solution were pipetted into each well of a 96-well microtiter plate preheated to 37° C. The reaction itself was started by the addition of 25 μL 250 mM AAPH. After shaking for 5 s, the fluorescence (Ex. 485 nm, Em. 510 nm) was read every 3 min for 90 min using an Infinite 200 instrument (TECAN, Switzerland). The area under the curve was used to express the antioxidant capacity relative to trolox, which is used as a standard. […] Such activities are likely to be closely related to the electron-rich C6-hydroxybenzylamino substituent system.

Rat glioma C6 cells = assay: Anti-inflammatory activity: isoproterenol-induced intracellular cAMP synthesis; format: cell-based
Description: The anti-inflammatory activity of para-topolin and para-topolin mesylate was determined; cytokinin kinetin was also evaluated as a control. Rat glioma C6 cells (ATCC No. CCL107) were cultured in a monolayer in chemically defined beser medium containing Ham's F10/minimal essential medium (1:1 v/v), 2 mM L-glutamine, 1% (v/v). Minimum vitamins of essential medium (100×), 1% (v/v) minimum essential amino acids (100×), 100 U/ml penicillin, […] streptomycin and 30 nM sodium selenite. Incubation was performed at 37° C. in a 100% humidified atmosphere. The assays were performed in logarithmic growth phase at a density of 2.5×10^5 cells/cm^2. Intracellular cAMP synthesis was induced by the addition of 5 mM (−)-isoproterenol; at the same time, various concentrations of tested compounds were added at the same time as (−)-isoproterenol. After 30 minutes of incubation, the cellular amount of CAMP was determined by ELISA (cAMP-enzyme immunoassay from Amersham). IC50 values were determined from the […] dose-response curve.

[3] = test system: Senescent human diploid fibroblasts; assay: Senescent cells (beta-galactosidase X-gal staining) in human fibroblast culture; format: cell-based
Description: Senescent human diploid fibroblasts (cells of different levels of passage: passage 20-P20; passage 40—labeled P40; passage 80—labeled P80) were seeded in a 24-well plate (10,000 cells/well). The culture medium (DMEM containing 5 g/l glucose, 2 mM glutamine, 100 U/ml penicillin, 100 μg/ml streptomycin and 10% fetal calf serum) was removed and replaced with culture medium containing test compound in a concentration range of 0 to 12.5 μM. Each concentration was tested in triplicate. The cells were then incubated at 37° C. […] In this experiment, senescent cells, but not other cells, were stained blue due to β-galactosidase on the substrate. […] In the oldest cells, there were only blue cells, from bright blue to almost opaque in color. Both para-topolins (base and mesylate salt) were effective in maintaining much lower levels of senescent cells after 80 passages. In the case of long-term culture, the treated cells were able to live 30% longer than the control cells.

[4] = test system: Human diploid fibroblast BJ; assay: MTT cytotoxicity assay in normal fibroblasts; format: cell-based; conditions: 72 hours
Description: MTT (metabolic tetrazolium toxicity) assay is a standard colorimetric assay for evaluation of cytotoxicity. Mitochondrial dehydrogenase activity converts yellow MTT into violet formazan which is measured by means of spectrometry. Human diploid fibroblast BJ (passage 18-22) were seeded into 96-well plate (5.000 cells per well). After 6 hours cultivation medium (DMEM with 5 g/l glucose, 2 mM glutamine, 100 U/ml penicillin, […] streptomycin, 10% fetal calf serum and sodium bicarbonate) was replaced with the cultivation medium containing test compounds in concentration range of 0-200 μM. Highest concentration was adjusted if the solubility of the compound was limiting. Every concentration was tested in pentaplicate. MTT was added to the cells after 72 hours incubation (final concentration 0.5 mg/ml) and incubation continued for another 3 hours. MTT was solubilised by DMSO and absorbance at 570 nm was measured. Growth inhibition (GI) was estimated using the following equitation: GI=(mean A drug exposed wells-mean Ablank/mean Acontrol wells−mean Ablank)×100%. The GI20 value, the drug concentration causing 20% decrease in mitochondrial dehydrogenase activity, was calculated from the obtained dose response curves.

[5] = test system: Salmonella typhimurium strain TA 98, TA 100, TA 1535, TA 1537 and Escherichia coli strain WP2 avrA; assay: Ames test (bacterial reverse mutation assay); format: cell-based; conditions: 10-1000 μg per plate, with and without metabolic activation (rat liver supernatant)
Description: Para-topolin and para-topolin mesylate were tested for mutagenicity by a bacterial reverse mutation assay. The performance of the test was based on the EU method B.13/14 Mutagenicity-Reverse mutation test using bacteria, Council Regulation (EC) No. 440/2008, which is analogous to the OECD Test Guideline No. 471. Four indicators of Salmonella typhimurium strain TA 98, TA 100, TA 1535, TA 1537 were used and one Escherichia coli strain WP2 avrA was also used. The test substances were dissolved in dimethyl sulfoxide (DMSO) and tested at doses of 10-1000 μg per plate, which was applied to 0.1 ml plates. The experiments were performed with metabolic activation with rat liver supernatant and cofactor mixture as well as without metabolic activation.

[6] = water; reported value; cited from earlier work
[7] = isoproterenol-induced cAMP, C6 cells

Oc1ccc(CNc2ncnc3nc[nH]c23)cc1 [para-topolin mesylate, 6-(4-hydroxybenzylamino) purine (para-topolin) mesylate (methylsulphonate)]
Solubility ([1]; DMF, listed as p-topolin mesylate): 14000 µg/mL
Solubility ([1]; DMSO, listed as p-topolin mesylate): 10000 µg/mL
Solubility ([1]; acetone, listed as p-topolin mesylate): 330 µg/mL
Solubility ([1]; acetonitrile): <250 µg/mL
Solubility ([1]; ethanol, listed as p-topolin mesylate): 400 µg/mL
Solubility ([1]; heptane): <100 µg/mL
Solubility ([1]; methanol, listed as p-topolin mesylate): 5000 µg/mL
Disproportionation (XRPD) (Disproportionation study): No signs of disproportionation
ORAC Average(TE), Trolox equivalents on equimolar basis ([2]; listed as 6-(4-hydroxybenzylamino)purinium mesylate (pT mesylate)): 21.436 TE
Anti-inflammatory activity (in words) (Rat glioma C6 cells; [7]): showed anti-inflammatory activity
Anti-inflammatory activity relative to free base para-topolin (Rat glioma C6 cells; [7]): twice more active
Senescent cells (%) ([3]; cell passage P20, listed as 6-(4-hydroxybenzylamino)purine mesylate (para-topolin mesylate)): 3%
Senescent cells (%) ([3]; cell passage P40, listed as 6-(4-hydroxybenzylamino)purine mesylate (para-topolin mesylate)): 12%
Senescent cells (%) ([3]; cell passage P80, listed as 6-(4-hydroxybenzylamino)purine mesylate (para-topolin mesylate)): 21%
Cytotoxicity for Human Diploid Fibroblasts GI20 ([4]; listed as 6-(4-hydroxybenzylamino)purine mesylate (para-topolin mesylate)): >167 µM
Mutagenicity [5]: non-mutagenic

Oc1ccc(CNc2ncnc3nc[nH]c23)cc1 [para-topolin, 6-(4-Hydroxybenzylamino) purine]
Solubility ([1]; DMF, listed as p-topolin): 5000 µg/mL (≈ 20700 µM)
Solubility ([1]; DMSO, organic solvent or mixture, thermodynamic from solid, DMSO, read-out: Solubility): 6660 µg/mL (≈ 27600 µM)
Solubility ([1]; acetone, organic solvent or mixture, thermodynamic from solid, acetone, read-out: Solubility): 200 µg/mL (≈ 829 µM)
Solubility ([1]; acetonitrile, organic solvent or mixture, thermodynamic from solid, acetonitrile, read-out: Solubility): < 250 µg/mL
Solubility ([1]; ethanol, organic solvent or mixture, thermodynamic from solid, ethanol, read-out: Solubility): 250 µg/mL (≈ 1040 µM)
Solubility ([1]; heptane, organic solvent or mixture, thermodynamic from solid, heptane, read-out: Solubility): < 100 µg/mL
Solubility ([1]; methanol, listed as p-topolin): 250 µg/mL (≈ 1040 µM)
ORAC Average(TE), Trolox equivalents on equimolar basis ([2]; listed as 6-(4-hydroxybenzylamino)purine (pT)): 16.799 TE
IC50 (Rat glioma C6 cells; Rattus norvegicus, C6, 0.5 h, 5 mM (−)-isoproterenol, 30 minutes, cAMP by ELISA): 7 µM
Anti-inflammatory activity (in words) (Rat glioma C6 cells; [7]): showed anti-inflammatory activity
Senescent cells (%) ([3]; cell passage P20, listed as 6-(4-hydroxybenzylamino)purine (para-topolin)): 4%
Senescent cells (%) ([3]; cell passage P40, listed as 6-(4-hydroxybenzylamino)purine (para-topolin)): 14%
Senescent cells (%) ([3]; cell passage P80, listed as 6-(4-hydroxybenzylamino)purine (para-topolin)): 25%
Cytotoxicity for Human Diploid Fibroblasts GI20 ([4]; listed as 6-(4-hydroxybenzylamino)purine (para-topolin)): 138 µM
Mutagenicity [5]: non-mutagenic
aqueous solubility (reported) [6]: < 40 µg/mL
